Measured values published in EP0381141B1, “Novel aryl- or heteroaryl-1-alkyl-pyrrole-2-carboxylic acid compounds useful in treating interleukin-1 mediated conditions” (MERRELL DOW PHARMACEUTICALS INC., priority 1989, dated 1990).

Tested on: Interleukin-1 Secretion by Macrophages
Assay: Ex vivo inhibition of interleukin-1 secretion by macrophages (LPS-stimulated peritoneal cells from orally dosed mice; IL-1 measured by thymocyte H3-thymidine incorporation)
Format: in vivo
Details: p.o. 3 times (40, 24 and 16 hours prior to sacrifice); for Interleukin-1 units/ml Mean ± Sem(n): 100 mg/kg, macrophage culture supernatant, unit = reciprocal of the dilution required to give 50% of maximal H3-thymidine incorporation; for inhibition at 100 mg/kg: Mus musculus, Macrophage, po, versus control group
Description: The interleukin-1 inhibitory properties of the compounds of this invention can readily be determined by standard and well known procedures.
Peritoneal cells from mice which had been orally dosed with 100 mg/kg of test compound 40, 24 and 16 hours prior to sacrifice, were collected by lavage, pooled and washed by centrifugation. The cells were resuspended in RPMI-1640 medium containing antibiotics, and plated. After 1 hour of incubation at 37°C, non-adherent cells were removed, and RPMI, with or without lipopolysaccharide, was added to each well. The presence of lipopolysaccharide will induce interleukin-1 secretion by macrophages. After incubation for 6 hours, the culture supernatant was collected, filtered and stored until assayed.
Mouse thymocytes were suspended in RPMI enriched with fetal bovine serum and 2-mercaptoethanol. Aliquots of cell suspension were incubated with an equal volume of dilutions of macrophage culture supernatant in the presence of a suboptimal amount of phytohemagglutinin for 72 hours in flat-bottom plates. Microcultures were pulsed with H³-thymidine for the last 16 hours and were harvested on glass fiber filters. H₃-thymidine will be incorporated into the DNA of actively proliferating cells. The radioactivity was determined by liquid scintillation counting, and interleukin-1 activity was expressed in units defined as the reciprocal of the dilution required to give 50% of maximal H³-thymidine incorporation.
Compounds were administered at a dosage of 100 mg/kg, p.o. 3 times (40, 24 and 16 hours prior to sacrifice). Compound 1: 1-(2-furanylmethyl)-1H-pyrrole-2-carboxylic acid Compound 2: 1-(phenylmethyl)-1Hpyrrole-2 -carboxylic acid Compound 3: 1-([1,1'-biphenyl]-4-ylmethyl)-1H -pyrrole-2-carboxylic acid

O=C(O)c1cccn1Cc1ccco1 [Compound 1, 1-(2-furanylmethyl)-1H-pyrrole-2-carboxylic acid]
Interleukin-1 units/ml Mean ± Sem(n): 10.2 +/- 3.4 units/ml | inhibition at 100 mg/kg: 93.2%

O=C(O)c1cccn1Cc1ccccc1 [Compound 2, 1-(phenylmethyl)-1H-pyrrole-2-carboxylic acid]
Interleukin-1 units/ml Mean ± Sem(n): 171.3 +/- 7.9 units/ml | inhibition at 100 mg/kg: 67.4%

O=C(O)c1cccn1Cc1ccc(-c2ccccc2)cc1 [Compound 3, 1-([1,1'-Biphenyl]-4-ylmethyl)-1H-Pyrrole-2-Carboxylic Acid]
Interleukin-1 units/ml Mean ± Sem(n): 26.6 +/- 3.9 units/ml | inhibition at 100 mg/kg: 94.9%
